# Test results from the supplement of paper PMC10307832.
# Legend:
# Assay in all cases: relative viability (nuclei count vs DMSO), 5 days (fraction); higher = more cells survive
# IDH-C35 + Linsitinib = compound: Cc1ccccc1C(C(=O)NC1CCCCC1)N(C(=O)Cn1ccnc1C)c1cccc(F)c1 [IDH-C35] + C[C@]1(O)C[C@@H](c2nc(-c3ccc4ccc(-c5ccccc5)nc4c3)c3c(N)nccn32)C1 [Linsitinib] (partner 1 µM)
# Procedure, shortened: (§1)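 Each reported value is a median over duplicate plates. It expresses relative viability: treated-well nuclei count divided by vehicle-well nuclei count. Lung cancer cell lines in 1536-well plates were dosed by pin tool a day after seeding, alone with one drug or with a fixed anchor-drug dose plus five library-drug doses (not always all listed) in √10 steps, and nuclei were counted after 5 days.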
# IDH-C35 + Bortezomib = compound: Cc1ccccc1C(C(=O)NC1CCCCC1)N(C(=O)Cn1ccnc1C)c1cccc(F)c1 [IDH-C35] + CC(C)C[C@H](NC(=O)[C@H](Cc1ccccc1)NC(=O)c1cnccn1)B(O)O [Bortezomib] (partner 0.002 µM)
# Procedure, shortened: as §1
# [1] = compound: CC1=C(C(=NN1)C)CC2=C(C3=C(S2)N(C(=O)N(C3=O)C)CC(C)C)C(=O)N4C[C@@H](CO4)O + O=C(c1cc(Cc2n[nH]c(=O)c3ccccc23)ccc1F)N1CCN(C(=O)C2CC2)CC1 [Olaparib] (partner 8 µM)
# Procedure, shortened: as §1
# [2] = compound: CC1=C(C(=NN1)C)CC2=C(C3=C(S2)N(C(=O)N(C3=O)C)CC(C)C)C(=O)N4C[C@@H](CO4)O + Cc1nc(NC(=O)N2CCC[C@H]2C(N)=O)sc1-c1ccnc(C(C)(C)C(F)(F)F)c1 [Alpelisib] (partner 2 µM)
# Procedure, shortened: as §1
Cell Line,relative viability (IDH-C35 + Linsitinib; first compound 0.08 µM),relative viability (IDH-C35 + Linsitinib; first compound 0.253 µM),relative viability (IDH-C35 + Linsitinib; first compound 0.8 µM),relative viability (IDH-C35 + Linsitinib; first compound 2.53 µM),relative viability (IDH-C35 + Linsitinib; first compound 8 µM),relative viability (IDH-C35 + Bortezomib; first compound 0.08 µM),relative viability (IDH-C35 + Bortezomib; first compound 0.253 µM),relative viability (IDH-C35 + Bortezomib; first compound 0.8 µM),relative viability (IDH-C35 + Bortezomib; first compound 2.53 µM),relative viability (IDH-C35 + Bortezomib; first compound 8 µM),relative viability ([1]; first compound 0.0025 µM),relative viability ([1]; first compound 0.007906 µM),relative viability ([1]; first compound 0.025 µM),relative viability ([1]; first compound 0.07906 µM),relative viability ([1]; first compound 0.25 µM),relative viability ([2]; first compound 0.0025 µM),relative viability ([2]; first compound 0.007906 µM),relative viability ([2]; first compound 0.025 µM),relative viability ([2]; first compound 0.07906 µM),relative viability ([2]; first compound 0.25 µM)
NCI-H1734,0.891,0.862,0.839,0.772,0.833,1.06,1.17,0.85,0.892,0.914,0.663,0.635,0.576,0.511,0.53,0.692,0.771,0.667,0.757,0.677
LXF-289,0.94,0.971,0.936,0.949,0.956,0.984,1,0.941,0.999,0.955,1.06,1,1.07,1.03,1.25,1.01,1.01,1.03,1.01,1.07
H3255,0.981,0.915,1.01,0.877,0.881,0.682,0.856,0.816,0.863,1.05,0.555,0.56,0.52,0.546,0.576,0.768,0.676,0.697,0.759,0.736
201T,1.03,1.06,1.01,0.992,0.955,1.09,1.1,1.08,1.09,1.09,0.852,0.815,0.828,0.845,0.853,1.04,0.995,0.996,0.971,0.949
NCI-H2126,0.765,0.667,0.712,0.726,0.703,1.14,1.12,1.15,1.09,1.07,0.962,0.951,0.874,0.865,0.914,0.773,0.847,0.732,0.736,0.682
HOP-62,1.15,0.803,0.924,,1.01,0.725,0.77,0.73,,0.798,0.408,0.434,0.545,0.425,0.515,0.959,1.15,1.01,0.862,0.696
CAL-12T,0.841,0.826,0.779,0.733,0.826,0.975,0.863,1.03,1.05,0.85,0.732,0.704,0.67,0.755,0.772,1.27,1.3,1.03,1.06,1.58
NCI-H520,0.915,0.969,1,0.888,0.907,0.759,0.344,0.636,0.731,0.756,0.286,0.296,0.26,0.253,0.272,0.835,1.04,0.612,0.536,0.836
NCI-H1755,0.952,0.946,0.984,1.02,0.962,0.885,1.04,0.881,0.971,0.933,0.92,0.897,0.861,0.85,0.902,0.963,1.03,0.898,0.849,1.02
NCI-H2023,0.719,0.612,0.712,0.646,0.557,0.998,1.13,1.01,0.349,0.911,0.47,0.496,0.449,0.435,0.51,0.621,0.635,0.593,0.58,0.622
NCI-H2009,1.18,1.24,1.16,1.23,1.14,1.13,1.01,1.04,1.03,0.874,0.704,0.682,0.649,0.711,0.721,1.31,1.23,1.14,1.26,1.15
